According to article PMC10620772, “Design, synthesis, and biological evaluation of new pyrimidine-5-carbonitrile derivatives as novel anti-cancer, dual EGFR^WT/COX-2 inhibitors with docking studies” (RSC Advances, 2023):

How the values were obtained:
Type in all cases: cell-based, human
NCI-H322M = assay: NCI60 antitumor screening; conditions: Homo sapiens; 10 μM single dose; NCI-H322M (non-small cell lung cancer); read-out: growth inhibition percent (GI%)
UACC-62 = assay: NCI60 antitumor screening; conditions: Homo sapiens; 10 μM single dose; UACC-62 (melanoma); read-out: growth inhibition percent (GI%)
ACHN = assay: NCI60 antitumor screening; conditions: Homo sapiens; 10 μM single dose; ACHN (renal cancer); read-out: growth inhibition percent (GI%)
HL-60(TB) = assay: NCI60 antitumor screening; conditions: Homo sapiens; 10 μM single dose; HL-60(TB) (leukaemia); read-out: growth inhibition percent (GI%)
EKVX = assay: NCI60 antitumor screening; conditions: Homo sapiens; 10 μM single dose; EKVX (non-small cell lung cancer); read-out: growth inhibition percent (GI%)
SF-539 = assay: NCI60 antitumor screening; conditions: Homo sapiens; 10 μM single dose; SF-539 (CNS cancer); read-out: growth inhibition percent (GI%)
PC-3 = assay: NCI60 antitumor screening; conditions: Homo sapiens; 10 μM single dose; PC-3 (prostate cancer); read-out: growth inhibition percent (GI%)
SK-MEL-5 = assay: NCI60 antitumor screening; conditions: Homo sapiens; 10 μM single dose; SK-MEL-5 (melanoma); read-out: growth inhibition percent (GI%)
OVCAR-3 = assay: NCI60 antitumor screening; conditions: Homo sapiens; 10 μM single dose; OVCAR-3 (ovarian cancer); read-out: growth inhibition percent (GI%)
SF-268 = assay: NCI60 antitumor screening; conditions: Homo sapiens; 10 μM single dose; SF-268 (CNS cancer); read-out: growth inhibition percent (GI%)
MOLT-4 = assay: NCI60 antitumor screening; conditions: Homo sapiens; 10 μM single dose; MOLT-4 (leukaemia); read-out: growth inhibition percent (GI%)
SF-295 = assay: NCI60 antitumor screening; conditions: Homo sapiens; 10 μM single dose; SF-295 (CNS cancer); read-out: growth inhibition percent (GI%)
BT-549 = assay: NCI60 antitumor screening; conditions: Homo sapiens; 10 μM single dose; BT-549 (breast cancer); read-out: growth inhibition percent (GI%)
UO-31 = assay: NCI60 antitumor screening; conditions: Homo sapiens; 10 μM single dose; UO-31 (renal cancer); read-out: growth inhibition percent (GI%)
IGROV1 = assay: NCI60 antitumor screening; conditions: Homo sapiens, IGROV-1; 10 μM single dose; IGROV1 (ovarian cancer); read-out: growth inhibition percent (GI%)
OVCAR-4 = assay: NCI60 antitumor screening; conditions: Homo sapiens; 10 μM single dose; OVCAR-4 (ovarian cancer); read-out: growth inhibition percent (GI%)
M14 = assay: NCI60 antitumor screening; conditions: Homo sapiens; 10 μM single dose; M14 (melanoma); read-out: growth inhibition percent (GI%)
OVCAR-5 = assay: NCI60 antitumor screening; conditions: Homo sapiens; 10 μM single dose; OVCAR-5 (ovarian cancer); read-out: growth inhibition percent (GI%)
HS 578T = assay: NCI60 antitumor screening; conditions: Homo sapiens; 10 μM single dose; HS 578T (breast cancer); read-out: growth inhibition percent (GI%)
COLO 205 = assay: NCI60 antitumor screening; conditions: Homo sapiens; 10 μM single dose; COLO 205 (colon cancer); read-out: growth inhibition percent (GI%)
CCRF-CEM = assay: NCI60 antitumor screening; conditions: Homo sapiens; 10 μM single dose; CCRF-CEM (leukaemia); read-out: growth inhibition percent (GI%)
SK-MEL-28 = assay: NCI60 antitumor screening; conditions: Homo sapiens; 10 μM single dose; SK-MEL-28 (melanoma); read-out: growth inhibition percent (GI%)
A498 = assay: NCI60 antitumor screening; conditions: Homo sapiens; 10 μM single dose; A498 (renal cancer); read-out: growth inhibition percent (GI%)
HCC-2998 = assay: NCI60 antitumor screening; conditions: Homo sapiens; 10 μM single dose; HCC-2998 (colon cancer); read-out: growth inhibition percent (GI%)
HT29 = assay: NCI60 antitumor screening; conditions: Homo sapiens, HT-29; 10 μM single dose; HT29 (colon cancer); read-out: growth inhibition percent (GI%)
NCI60 cell lines panel = assay: NCI60 antitumor screening, full panel; conditions: Homo sapiens; 10 μM single dose; mean over NCI60 cell lines; read-out: Mean growth inhibition percent (GI%)
How it was run: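 Percent growth inhibition (GI%) was recorded for each of the NCI60 lines, spanning leukaemia, lung, colon, CNS, melanoma, ovarian, renal, prostate and breast cancers, after exposure to compounds at one concentration, 10 μM.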

NCI-H460 = assay: NCI60 antitumor screening; conditions: Homo sapiens; 10 μM single dose; NCI-H460 (non-small cell lung cancer); read-out: growth inhibition percent (GI%)
T-47D = assay: NCI60 antitumor screening; conditions: Homo sapiens, T47D; 10 μM single dose; T-47D (breast cancer); read-out: growth inhibition percent (GI%)
SN12C = assay: NCI60 antitumor screening; conditions: Homo sapiens; 10 μM single dose; SN12C (renal cancer); read-out: growth inhibition percent (GI%)
NCI-H23 = assay: NCI60 antitumor screening; conditions: Homo sapiens; 10 μM single dose; NCI-H23 (non-small cell lung cancer); read-out: growth inhibition percent (GI%)
HCT-15 = assay: NCI60 antitumor screening; conditions: Homo sapiens; 10 μM single dose; HCT-15 (colon cancer); read-out: growth inhibition percent (GI%)
SK-MEL-2 = assay: NCI60 antitumor screening; conditions: Homo sapiens; 10 μM single dose; SK-MEL-2 (melanoma); read-out: growth inhibition percent (GI%)
HCT-116 = assay: NCI60 antitumor screening; conditions: Homo sapiens; 10 μM single dose; HCT-116 (colon cancer); read-out: growth inhibition percent (GI%)
NCI/ADR-RES = assay: NCI60 antitumor screening; conditions: Homo sapiens; 10 μM single dose; NCI/ADR-RES (ovarian cancer); read-out: growth inhibition percent (GI%)

Row | Compound | inhibition at 10 µM (NCI-H322M) [%] | inhibition at 10 µM (UACC-62) [%] | inhibition at 10 µM (ACHN) [%] | inhibition at 10 µM (HL-60(TB)) [%] | inhibition at 10 µM (EKVX) [%] | inhibition at 10 µM (SF-539) [%] | inhibition at 10 µM (PC-3) [%] | inhibition at 10 µM (SK-MEL-5) [%] | inhibition at 10 µM (OVCAR-3) [%] | inhibition at 10 µM (SF-268) [%] | inhibition at 10 µM (MOLT-4) [%] | inhibition at 10 µM (SF-295) [%] | inhibition at 10 µM (BT-549) [%] | inhibition at 10 µM (UO-31) [%] | inhibition at 10 µM (IGROV1) [%] | inhibition at 10 µM (OVCAR-4) [%] | inhibition at 10 µM (M14) [%] | inhibition at 10 µM (OVCAR-5) [%] | inhibition at 10 µM (HS 578T) [%] | inhibition at 10 µM (COLO 205) [%] | further results
1 | N#Cc1c(-c2ccc(F)cc2)nc(SCc2ccc(F)cc2)nc1N1CCN(c2ccccc2)CC1 [4n, 2-((4-Fluorobenzyl)thio)-4-(4-fluorophenyl)-6-(4-phenylpiperazin-1-yl)pyrimidine-5-carbonitrile] | < 10 | 25.8 | < 10 | < 10 | 18.7 | < 10 | 25.2 | 12.4 | < 10 | 14.1 | 12.4 | < 10 | < 10 | < 10 | < 10 | 10.4 | 10.1 | < 10 | < 10 | < 10 | inhibition at 10 µM (CCRF-CEM): 16.6%; inhibition at 10 µM (SK-MEL-28): < 10%; inhibition at 10 µM (A498): < 10%; inhibition at 10 µM (HCC-2998): < 10%; inhibition at 10 µM (HT29): < 10%; inhibition at 10 µM (NCI60 cell lines panel): < 10%; inhibition at 10 µM (NCI-H460): < 10%; inhibition at 10 µM (T-47D): 24.3%; inhibition at 10 µM (SN12C): < 10%; inhibition at 10 µM (NCI-H23): < 10%; inhibition at 10 µM (HCT-15): < 10%; inhibition at 10 µM (SK-MEL-2): 10.6%; inhibition at 10 µM (HCT-116): 11.8%; inhibition at 10 µM (NCI/ADR-RES): < 10%
2 | N#Cc1c(-c2ccc(F)cc2)nc(SCc2ccc([N+](=O)[O-])cc2)nc1N1CCN(c2ccccc2)CC1 [4o, 4-(4-Fluorophenyl)-2-((4-nitrobenzyl)thio)-6-(4-phenylpiperazin-1-yl)pyrimidine-5-carbonitrile] | < 10 | 18.1 | < 10 | < 10 | 13.9 | < 10 | < 10 | < 10 | < 10 | < 10 | < 10 | < 10 | < 10 | < 10 | < 10 | 12.3 | < 10 | < 10 | < 10 | < 10 | inhibition at 10 µM (CCRF-CEM): < 10%; inhibition at 10 µM (SK-MEL-28): < 10%; inhibition at 10 µM (A498): < 10%; inhibition at 10 µM (HCC-2998): < 10%; inhibition at 10 µM (HT29): < 10%; inhibition at 10 µM (NCI60 cell lines panel): < 10%; inhibition at 10 µM (NCI-H460): < 10%; inhibition at 10 µM (T-47D): < 10%; inhibition at 10 µM (SN12C): < 10%; inhibition at 10 µM (NCI-H23): < 10%; inhibition at 10 µM (HCT-15): < 10%; inhibition at 10 µM (SK-MEL-2): < 10%; inhibition at 10 µM (HCT-116): < 10%; inhibition at 10 µM (NCI/ADR-RES): < 10%
